Test results: patent publication US20240335397A1, “USE OF POLYAMINES IN THE TREATMENT OF BRAIN TUMOURS” (priority 2021, published 2024)
Like-named read-outs stand apart in the source and are kept apart here.

Key:
[1] = tested on: U87 cell line spheroid; details: for Invasion from spheroid: 2 wt % HA gel pre-mixed with polyamine; for Binding to HA (rank among polyamines): inferred from spheroid invasion in 2 wt % HA gel
Experimental: FIG. 3. Neutralisation of polyamine toxicity by matrix polyanions assayed in vitro. U87 cells were suspended at 5K cells per spheroid and then grown in medium in non-adherent plates for 7-10 days until seeded into 2% HA gel pre-mixed with a polyamine for 24 hours. (A) Representative microscopic images (multiplication 5×, field view: 1800 μm×2500 μm) were taken on day 2 after spheroid was seeded into the gel. (B) Area of invasion was determined by measurement of invasion distance from the centre of four independent spheroids in four directions on days 1, 2 and 3.
Strength of polyamine binding to polyanions (hyaluronic acid, GAGs) in (normal) brain ECM is a decisive factor which targets polyamine toxicity towards cancer cells rather than brain cells. When binding is strong, a polyamine will be neutralised before reaching cellular membrane which is surrounded by extracellular polyanions. When binding is weak, sufficient concentration of polyamine may kill the cell even though the cell is surrounded by polyanions. To test the binding strength of different polyamines, we developed a 3D neutralisation assay: the invasion from a neuroepithelial cancer spheroid (U87 cell line) was monitored in vitro in 2 wt % HA gel pre-mixed with different polyamines. Invasion from spheroid was indicative of cell survival and thus predictive of a strong binding of the polyamine to brain polyanions in vivo. A weak in vitro binding of a polyamine to HA manifested itself by the absence of invasion, i.e. cell poisoning, and thus was predictive of weak binding of the polyamine to brain polyanions in vivo.
In detail, polyamines were mixed with 2 wt % hyaluronic acid mixed with full MEM medium containing 10% foetal bovine serum to support cell growth to achieve the desired polyamine concentration and the resulting hyaluronic acid/polyamine gel plated in 24-well plates. One 3D tumour spheroid of U87 GBM cells was placed in each well. The invasion into the surrounding hyaluronic acid-rich matrix was imaged over several days and the invasion area measured by determining the maximum invasion distance in four orthogonal directions from the centre of the tumour spheroid and compared to controls with no polyamine in the hyaluronic acid matrix.

[2] = tested on: U87 cells; experiment: Acute toxicity of polyamines to U87 cells in liquid medium (CellToxGreen fluorescence, bright field images); assay type: cell-based; details: for EC50: Homo sapiens, U-87 MG, 1 h, U87 cells, liquid medium, 60 minutes incubation, CellToxGreen normalised to lysis buffer control, read-out: EC50 (cell death)
Experimental: FIG. 1. Comparative acute toxicity of selected linear polyamines towards cancer cell line of neuroepithelial origin. U87 cells were plated in 24-well plates and grown for about 3 days in liquid medium up to 50% confluency. Cell death was assayed via CellToxGreen (Promega) fluorescence after 60 minutes incubation with a polyamine and normalised to control in a lysis buffer.
We tested polyamine toxicity to U87 cells, an invasive cancer cell line of neuroepithelial origin, when they were plated and incubated in full MEM medium, containing 10% foetal bovine serum.

[3] = tested on: U87 cells; experiment: 2D-scanning cell toxicity assay: polyamine injected into well of U87 cells under 3 wt % HA gel; assay type: cell-based; details: for Level of protection by HA of distant cells (rank): FIG. 4
Experimental: FIG. 4. […] Adherent cells were grown in 24-well plates in 3% HA gel until achieved 40-50% confluency. Non-toxic fluorescent dye—CellToxGreen (Promega)—was premixed into the gel. 30 μL of polyamine ( 1/20 of total gel volume) was injected at 6 o'clock position of the well. CellToxGreen penetrated only into the dead cells with compromised membranes, bound to their DNA and emitted green fluorescence, i.e. increase in fluorescence intensity quantified cell death. Cells were monitored for 7 days using well scanning functions of a fluorescent reader FLUOstar (BMG Labtech, Germany). (A) Drawing of a well to show the point of injection of polyamine and the fate of cells near the injection point; and a representative image of a well assembled from 44 scanned patches. The higher the fluorescence intensity of a patch, the higher was the number of dead cells. (B) Ratio of dead cell fluorescence in two opposite areas of the well. Ratio=[fluorescence intensity in 22 patches adjacent to the injection point]/[fluorescence intensity in 22 patches opposing the injection point]. […] Multiplication 5×, field view: 2500 μm×1800 μm.
When brain cancers develop, it is within the polyanion (hyaluronic acid and GAG)-enriched environment of normal brain matrix, which in the tumour vicinity is degraded, diluted by oedema while the tumour itself synthesizes new specialized matrix with very different composition to normal brain (see Example 2). […] First, a cancer cell line of the neuroepithelial origin (U87) was plated, given a day for the cells to adhere to the well bottom and then covered by HA gel as a model of the polyanion-rich, normal brain ECM. Then, a polyamine was injected at the 6 o'clock position of each well (see FIG. 4). In the vicinity of the injection point, cells were expected to die, because the initial polyamine concentration was maximal in this region and the HA gel in this region was diluted by the carrier solvent (PBS). However, cells distant from the injection point were still surrounded by undiluted HA and the HA gel was expected to sequester the polyamine as it diffused through the HA gel, providing the polyamine binds strongly to HA and there is sufficient HA (i.e. the HA is not diluted) to bind sufficient polyamine to reduce the effective polyamine concentration to below the EC50 value. Thus, cells more distant from the injection point were expected to be protected from the polyamine, for as long as the polyamine remained strongly bound to the HA gel. Cell death was imaged over the well by scanning the well bottom for the fluorescence of a mortality dye, which binds DNA of cells with impaired membrane integrity.
In detail, U87 glioblastoma cells were grown in 24-well plates at with full MEM medium containing 10% foetal bovine serum until a layer of confluent cells covered the bottom of each well (FIG. 4). This liquid media was then removed leaving a layer of cells adhered to the bottom of each well. […] This hyaluronic acid plus protein gel represents a model of human brain extracellular matrix. CEIIToxGreen is a non-toxic molecule that can only enter dead cells, where it binds to DNA and emits green fluorescence. CEIIToxGreen thus allowed us to follow cell death over time in this assay by monitoring green fluorescence.
30 μL of different concentrations of polyamine was injected at the 6 o'clock position of each well and mapped the dead cell content in each well as a function of time. Specifically, each well was mapped as 44 congruent, contiguous tiles (FIG. 4A) and cell death in a tile was assayed as the net green fluorescence intensity from the tile.

[4] = tested on: NCr nu/nu mouse brain
Experimental: FIG. 5. Weight gain and survival of NCr nu/nu mice after a single polyamine injection into the brain. 6 animals per group were randomised on day 0, and on day 1 injected with 10 μL of 4 and 10 mM of the following three polyamines: putrescine, spermidine and cadaverine. Animal weight, survival and behaviour was monitored for 14 days.
To test polyamine safety in vivo and assess their effect on brain function, a single injection of 10 μL into NCr nu/nu mouse brain was selected as a model. A 10 μL volume in a mouse brain correlates well with a 3 cm diameter tumour in human brain, which is a typical size, for example, for initial glioblastoma diagnosis. The injected volume is thus similar to what might be needed to be injected into a human brain tumour. Three polyamines were selected for testing: putrescine, spermidine and cadaverine. Polyamines were tested in two concentrations: the lowest concentration, 4 mM, was expected to be safe based on in vitro assays and the highest concentration, 10 mM, to show some toxicity for cadaverine at least.

[5] = tested on: recurrent GBM; details: in combination with Lomustine, patients with recurrent GBM; cited from earlier work

NCCCCCCNCCCCCCN [BHMTA, bis(hexamethylene)triamine]
Concentrations showing cytotoxic effects in hyaluronic acid-rich matrix [1]: > 4000 µM

NCCCCCN [cadaverine]
EC50 [2]: 6 mM | Protection of cells in HA gel distant from injection ([3]; 10 mM): not protected | Level of protection by HA of distant cells (rank) ([3]; 3 wt % HA gel): lowest | Animals died after 30 min of injection ([4]; 10 mM, 10 μL into brain): 3 out of 6 | Further animals died within 24 hours ([4]; 10 mM, 10 μL into brain): 2 animals | Survival ([4]; 10 mM, 10 μL into brain): Only one animal survived | Weight loss of surviving animal ([4]; 10 mM, day 3, then fully recovered): 18% | Concentrations showing cytotoxic effects in hyaluronic acid-rich matrix ([1]; human): > 4000 µM

NCCCCN [putrescine]
Level of protection by HA of distant cells (rank) ([3]; 3 wt % HA gel): highest | Protection of cells in HA gel distant from injection ([3]; both 4 mM and 10 mM): protected | Acute toxicity in vivo ([4]; either concentration (4 mM, 10 mM), 10 μL into brain): Neither putrescine nor spermidine demonstrated acute toxicity | Cytotoxicity in hyaluronic acid-rich matrix compared with media [1]: almost completely abrogated

NCCCCNCCCN [spermidine]
EC50 [2]: 13 to 14 mM | Time cells on opposite side of well remained viable ([3]; 4-12 mM, 3 wt % HA gel): at least 7 days | Time in which cells close to injection site die ([3]; 4-12 mM, 3 wt % HA gel): 48 to 72 h | Toxicity for U87 cells close to injection site ([3]; 4-12 mM, 3 wt % HA gel): highly toxic | Protection of cells in HA gel distant from injection ([3]; both 4 mM and 10 mM): protected | Cytotoxicity in hyaluronic acid-rich matrix compared with media ([1]; 2 wt % HA gel): almost completely abrogated | Invasion from spheroid [1]: invasion from spheroid was not affected | Toxicity in 2 wt % hyaluronic acid ([1]; 4-12 mM): non-toxic | Binding to HA (rank among polyamines) [1]: strongest binder

NCCCNCCCCNCCCN [spermine]
Mode of cell death in bright field images ([2]; U87 cell suspensions, 10 mM and 20 mM, within 60 minutes): severe membrane disruption resulting in cell fragmentation | Reduction of toxicity in hyaluronic acid-rich environment compared to same cell type in medium ([3]; 10 mM, 3 wt % HA): 3 fold less toxic | Effect on cells a few millimetres away from injection point ([3]; 4-6 mM, 3 wt % HA gel): benign | Toxicity to cells close to injection point ([3]; 4-6 mM, 3 wt % HA gel): toxic | Invasion from spheroid [1]: invasion was strongly suppressed | Concentrations showing cytotoxic effects in hyaluronic acid-rich matrix ([1]; human): > 4000 µM | Binding to HA (rank among polyamines) [1]: weakest binder

Bevacizumab: monoclonal antibody against vascular endothelial growth factor (VEGF)
Increase in median progression-free survival [5]: 0.23 months | Increase in overall survival [5]: 1.4 months
